Data: ChEMBL document CHEMBL3232742, “Design, synthesis and evaluation of a cellular stable and detectable biotinylated fumagillin probe and investigation of cell permeability of fumagillin and its analogs to endothelial and cancer cells” (Eur J Med Chem, 2013)
The source made the active and inactive calls. The calls are words filed in the database; no cut-off is given here.

Columns and labels:
HepG2 [1] = assay: Antiproliferative against human HepG2 cells assessed as cell viability up to 1000 nM after 96 hrs by MTT assay; format: functional
[2] = Antiproliferative against human Bel7402 cells assessed as cell viability up to 1000 nM after 96 hrs by MTT assay; format: functional, Bel-7402
HUVEC [3] = assay: Antiproliferative against HUVEC cells assessed as cell viability after 96 hrs by MTT assay; format: functional, cell-based; conditions: Homo sapiens
MCF7 = assay: Antiproliferative against human MCF7 cells assessed as cell viability up to 1000 nM after 96 hrs by MTT assay; format: functional
[4] = molecular target: Methionine aminopeptidase 2 (Homo sapiens) (UniProt P50579); assay: Binding affinity to MetAP2 in fumagillin-pretreated HUVEC at 0.1 uM by Western blotting analysis
Methionine aminopeptidase 2 (Homo sapiens), sequence (P50579 2-478 limits assumed): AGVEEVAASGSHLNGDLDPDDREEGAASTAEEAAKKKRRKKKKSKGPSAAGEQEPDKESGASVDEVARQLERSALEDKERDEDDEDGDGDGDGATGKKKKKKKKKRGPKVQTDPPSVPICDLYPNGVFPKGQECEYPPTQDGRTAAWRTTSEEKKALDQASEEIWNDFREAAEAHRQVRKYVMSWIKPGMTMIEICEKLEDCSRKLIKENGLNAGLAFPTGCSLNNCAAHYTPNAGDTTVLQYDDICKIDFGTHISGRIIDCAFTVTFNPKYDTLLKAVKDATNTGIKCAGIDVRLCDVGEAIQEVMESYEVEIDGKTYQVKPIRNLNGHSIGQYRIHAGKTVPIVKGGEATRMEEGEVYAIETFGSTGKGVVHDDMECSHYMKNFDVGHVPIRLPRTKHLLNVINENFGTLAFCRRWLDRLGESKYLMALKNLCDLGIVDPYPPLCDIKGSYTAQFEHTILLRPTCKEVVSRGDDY

A549 = assay: Antiproliferative against human A549 cells assessed as cell viability up to 1000 nM after 96 hrs by MTT assay; format: functional
[5] = molecular target: Methionine aminopeptidase 2 (Homo sapiens) (UniProt P50579); assay: Binding affinity to MetAP2 in HUVEC at 0.1 uM by Western blotting analysis
[6] = molecular target: Methionine aminopeptidase 2 (Homo sapiens) (UniProt P50579); assay: Binding affinity to MetAP2 in compound pre-treated HUVEC at 0.1 uM after 48 hrs by Western blotting analysis
HUVEC [7] = assay: Stability in HUVEC assessed as compound bound MetAP2 level at 0.1 uM by Western blotting analysis; format: ADME, cell-based; conditions: human
HepG2 [8] = assay: Stability in human HepG2 assessed as compound bound MetAP2 level at 0.1 uM by Western blotting analysis; format: ADME, cell-based; conditions: hepg2, 0.1 µM
HepG2 [9] = assay: Antiproliferative against human HepG2 cells assessed as cell viability after 96 hrs by MTT assay; format: functional, cell-based; conditions: HepG2, 96 h
[10] = Antiproliferative against human Bel7402 cells assessed as cell viability after 96 hrs by MTT assay; format: functional, cell-based; conditions: Bel-7402, 96 h

SMILES	inhibition (INH) (HepG2 [1]) [%]	inhibition (INH) [2] [%]	IC50 (HUVEC [3]) [nM]	inhibition (INH) (MCF7) [%]	Activity [4]	inhibition (INH) (A549) [%]	Activity [5]	Activity [6]	Stability (HUVEC [7])	Stability (HepG2 [8])	IC50 (HepG2 [9]) [nM]	IC50 [10] [nM]
CO[C@@H]1[C@H](OC(=O)NCCCCCCCCNC(=O)CCCC[C@@H]2SC[C@@H]3NC(=O)N[C@@H]32)CC[C@]2(CO2)[C@H]1[C@@]1(C)O[C@@H]1CC=C(C)C	<50	<50	9.8	<50	inactive	<50	Active	inactive				
CO[C@@H]1[C@H](OC(=O)NCCNC(=O)OCCOCCOCCOCCOCCOCCOC(=O)NCCCC[C@@H]2SC[C@@H]3NC(=O)N[C@@H]32)CC[C@]2(CO2)[C@H]1[C@@]1(C)O[C@@H]1CC=C(C)C	<50	<50	60	<50		<50			Stable	Stable		
CO[C@@H]1[C@H](OC(=O)/C=C/C=C/C=C/C=C/C(=O)O)CC[C@]2(CO2)[C@H]1[C@@]1(C)O[C@@H]1CC=C(C)C [FUMAGILLIN]	<50	<50	6.6	<50		<50						
COc1cccc2c1C(=O)c1c(O)c3c(c(O)c1C2=O)C[C@@](O)(C(=O)CO)C[C@@H]3O[C@H]1C[C@H](N)[C@H](O)[C@H](C)O1 [DOXORUBICIN]											20.2	578
